Data as given in ChEMBL document CHEMBL5608247, “Development of a First-in-Class DNMT1/HDAC Inhibitor with Improved Therapeutic Potential and Potentiated Antitumor Immunity” (J Med Chem, 2024).
Calls of active or inactive are those of the source. No cut-off for these calls is given here.

What was measured:
[1] = molecular target: T1, DNA (cytosine-5)-methyltransferase 1 (Homo sapiens, UniProt P26358); test: Inhibition of DNMT1 in human HL-60 cells at 1 uM incubated for 6 hrs in presence of MG132 by Western blot analysis; type: cell-based
MV4-11 [2] = test: Downregulation of GPR183 expression in human MV4-11 cells at 100 nM incubated for 2 days in presence of SAHA by RNA-Seq analysis; type: functional, cell-based; details: time 2.0 day
Kasumi 1 = test: Inhibition of cell viability in human Kasumi 1 cells incubated for 4 days in presence of SAHA by CCK8 assay; type: functional, cell-based; details: Kasumi 1, 96 h
MC-38 [3] = test: Immunomodulatory activity in mouse MC38 cells allografted in mouse assessed as inhibition of pro-tumor M2 polarization at 30 mg/kg, ip qd in presence of SAHA; type: functional, organism-based
MV4-11 [4] = test: Antiproliferative activity against human MV4-11 cells incubated for 96 hrs by CCK8 assay; type: functional, cell-based; details: MV4-11, 96 h
MC-38 [5] = test: Upregulation of Isg15 mRNA level in mouse MC38 cells at 1 to 3 uM incubated for 3 days in presence of SAHA by qRT-PCR analysis; type: functional, cell-based; details: dose 1-3 µM, time 3.0 day
[6] = Toxicity in BALB/c nude mouse xenografted with human MV4-11 cells assessed as animal fatality at 45 mg/kg, ip qd treated for 19 days; type: organism-based; details: in vivo, 456 h, time 19 day
[7] = Toxicity in immunodeficient BALB/c nude mouse allografted with mouse MC38 cells assessed as drug tolerance at 30 mg/kg, ip qd for 15 days in presence of SAHA; type: organism-based, MC-38; details: in vivo, 360 h, time 15 day
MV4-11 [8] = test: Upregulation of BLK expression in human MV4-11 cells at 100 nM incubated for 2 days in presence of SAHA by RNA-Seq analysis; type: functional, cell-based; details: time 2.0 day
MC-38 [9] = test: Antitumor activity against mouse MC38 cells allografted in immunodeficient BALB/c nude mouse at 30 mg/kg, ip qd for 15 days in presence of SAHA relative to control; type: functional; details: MC-38, 360 h, time 15 day, read-out: TGI
MV4-11 [10] = test: Downregulation of FOXH1 expression in human MV4-11 cells at 100 nM incubated for 2 days in presence of SAHA by RNA-Seq analysis; type: functional, cell-based; details: time 2.0 day
[11] = molecular target: T1, DNA (cytosine-5)-methyltransferase 1; test: Inhibition of DNMT1 in human MV4-11 cells assessed as ABT1 promoter methylation at 300 nM incubated for 3 days by Bisulfite Sequencing PCR analysis (reference value: 99.3 %); type: cell-based; set-up: scale not given: the % may be the effect or the level left; details: time 3.0 day
MC-38 [12] = test: Upregulation of Oas2 mRNA level in mouse MC38 cells at 1 to 3 uM incubated for 3 days in presence of SAHA by qRT-PCR analysis; type: functional, cell-based; details: dose 1-3 µM, time 3.0 day
[13] = Toxicity in immunodeficient BALB/c nude mouse allografted with mouse MC38 cells assessed as body weight loss at 30 mg/kg, ip qd for 15 days in presence of SAHA; type: organism-based, MC-38; details: in vivo, 360 h, time 15 day
[14] = Toxicity in BALB/c nude mouse xenografted with human MV4-11 cells assessed as body weight loss at 45 mg/kg, ip qd treated for 19 days; type: organism-based; details: in vivo, 456 h, time 19 day
MC-38 [15] = test: Immunomodulatory activity in mouse MC38 cells allografted in mouse assessed as accumulation of NKT cells at 30 mg/kg, ip qd in presence of SAHA; type: functional, organism-based
MV4-11 [16] = test: Upregulation of p57 expression in human MV4-11 cells at 100 nM incubated for 2 days in presence of SAHA by RNA-Seq analysis; type: functional, cell-based; details: time 2.0 day
[17] = molecular target: T1, DNA (cytosine-5)-methyltransferase 1; test: Inhibition of DNMT1 in human MV4-11 cells at 1 uM incubated for 6 hrs in presence of CQ by Western blot analysis; type: cell-based
MC-38 [18] = test: Immunomodulatory activity in mouse MC38 cells allografted in mouse assessed as increase in IFN-gamma-positive cells at 30 mg/kg, ip qd in presence of SAHA; type: functional, organism-based
MV4-11 [19] = test: Upregulation of S100A16 expression in human MV4-11 cells at 100 nM incubated for 2 days in presence of SAHA by RNA-Seq analysis; type: functional, cell-based; details: time 2.0 day
[20] = molecular target: T1, DNA (cytosine-5)-methyltransferase 1; test: Inhibition of DNMT1 in human MV4-11 cells at 1 uM incubated for 6 hrs in presence of MG132 by Western blot analysis; type: cell-based
[21] = molecular target: T1, DNA (cytosine-5)-methyltransferase 1; test: Synergistic inhibition of DNMT1 in human MV4-11 cells at 100 nM incubated for 2 days in presence of SAHA by RNA-Seq analysis; type: cell-based; details: time 2.0 day
[22] = Inhibition of cell viability in human HSPC cells incubated for 4 days in presence of SAHA by CCK8 assay; type: toxicity, cell-based
[23] = molecular target: T1, DNA (cytosine-5)-methyltransferase 1; test: Inhibition of DNMT1 in human HL-60 cells at 1 uM incubated for 6 hrs in presence of Z-VAD-FMK by Western blot analysis; type: cell-based
HL-60 = test: Inhibition of cell viability in human HL-60 cells incubated for 4 days in presence of SAHA by CCK8 assay; type: functional, cell-based; details: HL-60, 96 h
MV4-11 [24] = test: Antitumor activity against human MV4-11 cells xenografted in BALB/c nude mouse at 30 mg/kg, ip qd for 27 days in presence of SAHA relative to control; type: functional; details: MV4-11, 648 h, time 27 day, read-out: TGI
MV4-11 [25] = test: Inhibition of cell viability in human MV4-11 cells incubated for 4 days in presence of SAHA by CCK8 assay; type: functional, cell-based; details: MV4-11, 96 h
MV4-11 [26] = test: Antitumor activity against human MV4-11 cells xenografted in BALB/c nude mouse at 45 mg/kg, ip qd treated for 19 days relative to control; type: functional; details: MV4-11, 456 h, time 19 day, read-out: TGI
MV4-11 [27] = test: Downregulation of MYC expression in human MV4-11 cells at 100 nM incubated for 2 days in presence of SAHA by RNA-Seq analysis; type: functional, cell-based; details: time 2.0 day
MC-38 [28] = test: Immunomodulatory activity in mouse MC38 cells allografted in mouse assessed as accumulation of T cells at 30 mg/kg, ip qd in presence of SAHA; type: functional, organism-based
[29] = molecular target: T1, DNA (cytosine-5)-methyltransferase 1; test: Inhibition of DNMT1 in human MV4-11 cells at 1 uM incubated for 6 hrs in presence of Z-VAD-FMK by Western blot analysis; type: cell-based
[30] = molecular target: Histone deacetylase (Homo sapiens) (UniProt Q13547+O15379+Q9UBN7+Q92769+Q9UQL6+Q8WUI4+Q9BY41+Q96DB2+P56524+Q9UKV0+Q969S8); test: Inhibition of HDAC in human MV4-11 cells at 100 nM incubated for 2 days in presence of SAHA by RNA-Seq analysis; type: cell-based; details: time 2.0 day
[31] = molecular target: T1, DNA (cytosine-5)-methyltransferase 1; test: Induction of thermal stabilization of N-terminal 6xHis-FLAG-tagged […] human DNMT1 (698 to 1616 residues) extracted from Sf9 cells assessed as change in melting temperature at 10 uM by SYPRO Orange dye based PTS assay (reference value: 0.0 degreeC); type: cell-based
MV4-11 [32] = test: Downregulation of GLIS2 expression in human MV4-11 cells at 100 nM incubated for 2 days in presence of SAHA by RNA-Seq analysis; type: functional, cell-based; details: time 2.0 day
[33] = Toxicity in BALB/c nude mouse xenografted with human MV4-11 cells assessed as body weight loss at 30 mg/kg, ip qd for 27 days in presence of SAHA; type: organism-based; details: in vivo, 648 h, time 27 day
MC-38 [34] = test: Upregulation of IAPEz mRNA level in mouse MC38 cells at 1 to 3 uM incubated for 3 days in presence of SAHA by qRT-PCR analysis; type: functional, cell-based; details: dose 1-3 µM, time 3.0 day
[35] = molecular target: T1, DNA (cytosine-5)-methyltransferase 1; test: Inhibition of DNMT1 in human HL-60 cells at 1 uM incubated for 6 hrs in presence of CQ by Western blot analysis; type: cell-based
MC-38 [36] = test: Immunomodulatory activity in mouse MC38 cells allografted in mouse assessed as polarization of macrophages towards tumor -suppressing M1 phenotype at 30 mg/kg, ip qd in presence of SAHA; type: functional, organism-based

T1 sequence (P26358 whole entry): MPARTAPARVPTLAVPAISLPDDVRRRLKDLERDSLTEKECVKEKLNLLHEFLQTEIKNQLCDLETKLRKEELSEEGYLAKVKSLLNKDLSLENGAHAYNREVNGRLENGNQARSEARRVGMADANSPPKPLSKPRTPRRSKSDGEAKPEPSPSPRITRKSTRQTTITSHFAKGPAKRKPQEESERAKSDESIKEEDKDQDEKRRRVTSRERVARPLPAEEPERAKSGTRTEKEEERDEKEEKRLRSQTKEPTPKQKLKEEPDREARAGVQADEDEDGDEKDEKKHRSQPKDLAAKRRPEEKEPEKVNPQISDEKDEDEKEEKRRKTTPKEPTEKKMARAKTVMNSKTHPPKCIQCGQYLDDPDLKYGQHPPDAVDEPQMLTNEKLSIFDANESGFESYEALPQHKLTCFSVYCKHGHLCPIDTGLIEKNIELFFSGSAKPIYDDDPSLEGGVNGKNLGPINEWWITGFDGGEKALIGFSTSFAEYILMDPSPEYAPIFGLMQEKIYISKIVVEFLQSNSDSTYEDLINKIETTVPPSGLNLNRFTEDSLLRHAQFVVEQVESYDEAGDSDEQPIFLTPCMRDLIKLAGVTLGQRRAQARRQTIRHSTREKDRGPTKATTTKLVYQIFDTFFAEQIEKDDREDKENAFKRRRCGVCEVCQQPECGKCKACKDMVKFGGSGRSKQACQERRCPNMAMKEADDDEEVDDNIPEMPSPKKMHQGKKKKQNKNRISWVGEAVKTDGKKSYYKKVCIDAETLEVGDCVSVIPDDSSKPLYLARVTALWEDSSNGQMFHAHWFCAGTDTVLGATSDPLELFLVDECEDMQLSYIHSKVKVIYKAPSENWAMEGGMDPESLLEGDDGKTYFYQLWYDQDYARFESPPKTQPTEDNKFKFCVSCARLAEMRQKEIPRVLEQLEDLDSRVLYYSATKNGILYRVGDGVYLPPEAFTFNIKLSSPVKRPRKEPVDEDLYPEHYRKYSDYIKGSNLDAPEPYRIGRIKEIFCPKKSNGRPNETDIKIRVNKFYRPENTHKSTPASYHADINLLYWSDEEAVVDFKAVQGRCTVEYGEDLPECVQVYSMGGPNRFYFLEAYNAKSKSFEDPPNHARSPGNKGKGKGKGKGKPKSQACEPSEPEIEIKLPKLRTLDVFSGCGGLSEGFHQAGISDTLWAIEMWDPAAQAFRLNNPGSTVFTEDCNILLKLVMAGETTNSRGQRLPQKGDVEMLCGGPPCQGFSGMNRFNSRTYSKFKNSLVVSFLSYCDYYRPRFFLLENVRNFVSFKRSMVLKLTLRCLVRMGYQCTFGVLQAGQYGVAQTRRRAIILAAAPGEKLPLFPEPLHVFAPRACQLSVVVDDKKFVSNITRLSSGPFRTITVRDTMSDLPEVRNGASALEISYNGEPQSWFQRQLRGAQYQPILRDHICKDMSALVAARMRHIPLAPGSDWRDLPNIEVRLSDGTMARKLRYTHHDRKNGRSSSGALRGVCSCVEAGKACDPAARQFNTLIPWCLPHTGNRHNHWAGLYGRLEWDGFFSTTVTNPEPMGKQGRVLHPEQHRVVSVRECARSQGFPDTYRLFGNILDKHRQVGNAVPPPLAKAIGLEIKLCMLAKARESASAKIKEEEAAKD

Compound: CCc1c(C#N)c(SC(C(N)=O)c2ccccc2)nc(N2CCC(N)CC2)c1C#N (stereo not drawn)
- inhibition [1]: inactive
- Activity (MV4-11 [2]): Active
- IC50 (Kasumi 1): 380 nM
- inhibition (MC-38 [3]): Active
- IC50 (MV4-11 [4]): > 5000 nM
- Activity (MC-38 [5]): Active
- Activity [6]: Toxic
- Activity [7]: Non-Toxic
- Activity (MV4-11 [8]): Active
- inhibition in vivo at 30 mg/kg (MC-38 [9]): 24%
- Activity (MV4-11 [10]): Active
- Activity [11]: 6.43%
- Activity (MC-38 [12]): Active
- Activity [13]: Non-Toxic
- Activity [14]: Toxic
- Activity (MC-38 [15]): Active
- Activity (MV4-11 [16]): Active
- inhibition [17]: Active
- Activity (MC-38 [18]): Active
- Activity (MV4-11 [19]): Active
- inhibition [20]: inactive
- inhibition [21]: Active
- IC50 at 4 days [22]: 800 nM
- inhibition [23]: Active
- IC50 (HL-60): 320 nM
- inhibition in vivo at 30 mg/kg (MV4-11 [24]): 89%
- IC50 (MV4-11 [25]): 400 nM
- inhibition in vivo at 45 mg/kg (MV4-11 [26]): 93%
- Activity (MV4-11 [27]): Active
- Activity (MC-38 [28]): Active
- inhibition [29]: Active
- inhibition [30]: Active
- ΔTm [31]: 8 °C
- Activity (MV4-11 [32]): Active
- Activity [33]: Toxic
- Activity (MC-38 [34]): Active
- inhibition [35]: Active
- Activity (MC-38 [36]): Active
